Our source for the viability, T/C and IC50 values is PubChem BioAssay AID1963984 (Molecular Pharmacology Branch, DTP, NCI, 2024).

The experiment relates to 233499-124-R-J3-PDC spheroids with HUVEC/MSC, viability. The experiment can be described thus: Anticancer human tumor 233499-124-R-J3-PDC patient-derived colon adenocarcinoma cell line growth inhibition [PI3K]. Particulars: for viability, T/C: stronger effect = lower value. An excerpt: Combinatorial screen of targeted agents with the PI3K inhibitors inavolisib, alpelisib, duvelisib, and copanlisib in multi-cell type tumor spheroids
A high-throughput screen of multi-cell type tumor spheroids was designed to identify active combinations of targeted small molecules and PI3K pathway inhibitors. Complex spheroids include a stromal component modeled by human endothelial cells (HUVEC) and fibroblasts modeled by human mesenchymal stem cells (MSCs). The concentration ranges selected for each drug and investigational agent were based upon clinically achievable concentrations if the clinical Cmax of the agent was known.
Compounds. The drugs and investigational agents: inavolisib (NSC800729), alpelisib (NSC765974), duvelisib (NSC772469), copanlisib (NSC816437), ipatasertib (NSC767898), afuresertib (NSC778305), talazoparib (NSC767125), sapanisertib (NSC764658), selumetinib (NSC741078), tovorafenib (DAY101, NSC766906), vemurafenib (NSC761431), ravoxertinib (NSC781343), sotorasib (NSC818433), MRTX1133 (NSC 836407), abemaciclib (NSC 768073), palbociclib (NSC758247), venetoclax (NSC 766270), SY5609 (NSC837396), enzalutamide (NSC755605), and darolutamide (NSC825331), were obtained from the National Cancer Institute (NCI) Developmental Therapeutics Program Chemical Repository. The FDA-approved anticancer drug set is available from the NCI Developmental Therapeutics Program. […] The stock solutions were prepared in dimethyl sulfoxide (DMSO, Sigma-Aldrich, St. Louis, MO, cat. D2650) at 800-fold the tested concentration and stored at -70 degrees C prior to their use. All drugs and investigational agents were tested over a range starting from a high concentration at or near the clinical Cmax and decreasing in half-log increments. If the clinical Cmax for an agent had not been determined, the highest concentration tested was 10 microM.
Cell Culture. All cells were maintained in an incubator at 37 degrees C and 5% CO2 with 95% humidity. The PDC lines were cultured according to standard operating procedures established by the NCI PDMR (https://pdmr.cancer.gov/sops/default.htm). All PDCs were thawed and cultured in Matrigel-coated flasks prepared with a working solution of 1X Ham's F-12 nutrient mix, without supplementation (Invitrogen, Waltham, MA, cat. 11765054), 100 U/mL penicillin-streptomycin (Invitrogen, cat. 15140122), and 2.5% Matrigel (Corning Inc., Corning, NY, cat. 354248) for the first three passages. The 354836-022-R-J1-PDC, 475296-252-R-J1-PDC, and 997726-040-R-J2-PDC lines were cultured in 6A media, which includes advanced DMEM/F-12 (Thermo Fisher Scientific, cat. 12634028), 10 mM HEPES (Thermo Fisher Scientific, cat. 15630080), 1X GlutaMAX supplement (Thermo Fisher Scientific, cat. 35050061), 0.1 mg/mL primocin (InvivoGen, San Diego, CA, cat. ant-pm-2), 10% defined fetal bovine serum, heat inactivated (HyClone Laboratories Inc., Logan, UT, cat. SH30070.03HI), 50% L-WRN conditioned media (ATCC, cat. CRL-3276), 1.25 mM N-Acetyl-L-cysteine (Sigma-Aldrich, cat. A9165), 10 mM nicotinamide (Sigma-Aldrich, cat. N0636), 1X B-27 supplement (Thermo Fisher Scientific, cat. 17504044), 1X N-2 supplement (Thermo Fisher Scientific, cat. 17502048), and 10 microM Y-27632 dihydrochloride (Tocris Bioscience, Bristol, United Kingdom, cat. 1254). The 624824-186-R-J2-PDC line was cultured in 6C/Colon 1B media, which includes all 6A media components plus 50 ng/mL human EGF recombinant protein (Thermo Fisher Scientific, cat. PHG0311). […]
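Further: spheroids exposed to agents for seven days before readout.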
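Wherever viability, T/C is given: percent viability relative to DMSO vehicle control taken as 100%.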

Regarding `CNC(=O)c1ccc(N2C(=S)N(c3ccc(C#N)c(C(F)(F)F)c3)C(=O)C2(C)C)cc1F`, the viability, T/C is 93% [middle of 4 runs] (compound 0.0316 µM); 94.5% [middle of 4 runs] (compound 0.1 µM); 107% [middle of 4 runs] (compound 0.316 µM); 93.1% [middle of 4 runs] (compound 1 µM); 92.1% [middle of 4 runs] (compound 3.16 µM). Moreover, where the note is “curve of compound”, the IC50 was over 10000 nM.
For `Cn1cnc2c(F)c(Nc3ccc(Br)cc3Cl)c(C(=O)NOCCO)cc21` + CC(Nc1ccc2c(c1)OCCn1cc(N3C(=O)OCC3C(F)F)nc1-2)C(N)=O, the IC50 was found to be 479 nM (curve of first compound, second compound 0.00316 µM); 541 nM (curve of first compound, second compound 0.01 µM); 262 nM (curve of first compound, second compound 0.0316 µM); 200 nM (curve of first compound, second compound 0.1 µM); 134 nM (curve of first compound, second compound 0.316 µM); 17.1 nM (curve of first compound, second compound 1 µM). The viability, T/C by setting is: (second compound 0.00316 µM, first compound 0.00949 µM) 85%; (second compound 0.00316 µM, first compound 0.03 µM) 80%; (second compound 0.00316 µM, first compound 0.0949 µM) 75.1%; (second compound 0.00316 µM, first compound 0.3 µM) 57%; (second compound 0.00316 µM, first compound 0.949 µM) 38.4%; (second compound 0.00316 µM, first compound 3 µM) 18.7%. Moreover, the viability, T/C (second compound 0.01 µM, first compound 0.00949 µM) was 79.7%; the viability, T/C (second compound 0.01 µM, first compound 0.03 µM) was 85.1%; the viability, T/C (second compound 0.01 µM, first compound 0.0949 µM) is 80.3%; the viability, T/C (second compound 0.01 µM, first compound 0.3 µM) was 64.1%; the viability, T/C (second compound 0.01 µM, first compound 0.949 µM) is 36.4%; the viability, T/C (second compound 0.01 µM, first compound 3 µM) is 21.9%. Also, the viability, T/C reads like this: (second compound 0.0316 µM, first compound 0.00949 µM) 80.4%; (second compound 0.0316 µM, first compound 0.03 µM) 90.6%; (second compound 0.0316 µM, first compound 0.0949 µM) 78.7%; (second compound 0.0316 µM, first compound 0.3 µM) 45.7%; (second compound 0.0316 µM, first compound 0.949 µM) 30.2%; (second compound 0.0316 µM, first compound 3 µM) 23.8%. The viability, T/C by setting is: (second compound 0.1 µM, first compound 0.00949 µM) 77.6%; (second compound 0.1 µM, first compound 0.03 µM) 60.8%; (second compound 0.1 µM, first compound 0.0949 µM) 62.1%; (second compound 0.1 µM, first compound 0.3 µM) 47.4%; (second compound 0.1 µM, first compound 0.949 µM) 22.9%; (second compound 0.1 µM, first compound 3 µM) 16.8%. The viability, T/C is 70.2% (second compound 0.316 µM, first compound 0.00949 µM); 82.6% (second compound 0.316 µM, first compound 0.03 µM); 53.6% (second compound 0.316 µM, first compound 0.0949 µM); 37.1% (second compound 0.316 µM, first compound 0.3 µM); 29.2% (second compound 0.316 µM, first compound 0.949 µM); 24.2% (second compound 0.316 µM, first compound 3 µM). The viability, T/C was 57% (second compound 1 µM, first compound 0.00949 µM); 42% (second compound 1 µM, first compound 0.03 µM); 38.2% (second compound 1 µM, first compound 0.0949 µM); 19.8% (second compound 1 µM, first compound 0.3 µM); 28.7% (second compound 1 µM, first compound 0.949 µM); 12.7% (second compound 1 µM, first compound 3 µM).
As for `CCN1CCN(Cc2ccc(Nc3ncc(F)c(-c4cc(F)c5nc(C)n(C(C)C)c5c4)n3)nc2)CC1`, the viability, T/C reads like this: (compound 0.01 µM) 88.5% [middle of 4 runs]; (compound 0.0316 µM) 85.6% [middle of 4 runs]; (compound 0.1 µM) 93.8% [middle of 4 runs]; (compound 0.316 µM) 58.9% [middle of 4 runs]; (compound 1 µM) 38.2% [middle of 4 runs].
